Measurements from patent publication US10118916B2, “Modulators of cystic fibrosis transmembrane conductance regulator protein” (AbbVie S.à.r.l., priority 2016, dated 2018).

Target: T1, F508delCFTR (Homo sapiens, UniProt P13569, DEL508-508)
T1 construct: expressed in transfected cells; host or cells: CFBE41o- (human lung derived epithelial cell line), doxycycline-inducible
Assay: Cell Surface Expression-Horse Radish Peroxidase (CSE-HRP) assay
Assay type: cell-based
Conditions: CFBE41o-F508delCFTR-HRP cells; for EC50: F508delCFTR cell surface expression, luminescence, 18-24 hours at 33° C., highest concentration 20 μM; for Maximum % activity: maximum at any tested concentration, normalized to on-plate positive control (3 μM)
Method in brief: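 CFBE41o- cells expressing doxycycline-induced (0.5 μg/mL, 72 h at 37 °C) F508delCFTR with HRP in the fourth extracellular loop; compounds 8 points, 3-fold from 20 μM, 18-24 h at 33 °C. Surface HRP measured by luminol luminescence, normalised to DMSO and 3 μM reference corrector; EC50 from variable-slope sigmoidal fit of triplicate plates.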

T1 sequence (P13569 with tags, fused parts or gaps DEL508-508): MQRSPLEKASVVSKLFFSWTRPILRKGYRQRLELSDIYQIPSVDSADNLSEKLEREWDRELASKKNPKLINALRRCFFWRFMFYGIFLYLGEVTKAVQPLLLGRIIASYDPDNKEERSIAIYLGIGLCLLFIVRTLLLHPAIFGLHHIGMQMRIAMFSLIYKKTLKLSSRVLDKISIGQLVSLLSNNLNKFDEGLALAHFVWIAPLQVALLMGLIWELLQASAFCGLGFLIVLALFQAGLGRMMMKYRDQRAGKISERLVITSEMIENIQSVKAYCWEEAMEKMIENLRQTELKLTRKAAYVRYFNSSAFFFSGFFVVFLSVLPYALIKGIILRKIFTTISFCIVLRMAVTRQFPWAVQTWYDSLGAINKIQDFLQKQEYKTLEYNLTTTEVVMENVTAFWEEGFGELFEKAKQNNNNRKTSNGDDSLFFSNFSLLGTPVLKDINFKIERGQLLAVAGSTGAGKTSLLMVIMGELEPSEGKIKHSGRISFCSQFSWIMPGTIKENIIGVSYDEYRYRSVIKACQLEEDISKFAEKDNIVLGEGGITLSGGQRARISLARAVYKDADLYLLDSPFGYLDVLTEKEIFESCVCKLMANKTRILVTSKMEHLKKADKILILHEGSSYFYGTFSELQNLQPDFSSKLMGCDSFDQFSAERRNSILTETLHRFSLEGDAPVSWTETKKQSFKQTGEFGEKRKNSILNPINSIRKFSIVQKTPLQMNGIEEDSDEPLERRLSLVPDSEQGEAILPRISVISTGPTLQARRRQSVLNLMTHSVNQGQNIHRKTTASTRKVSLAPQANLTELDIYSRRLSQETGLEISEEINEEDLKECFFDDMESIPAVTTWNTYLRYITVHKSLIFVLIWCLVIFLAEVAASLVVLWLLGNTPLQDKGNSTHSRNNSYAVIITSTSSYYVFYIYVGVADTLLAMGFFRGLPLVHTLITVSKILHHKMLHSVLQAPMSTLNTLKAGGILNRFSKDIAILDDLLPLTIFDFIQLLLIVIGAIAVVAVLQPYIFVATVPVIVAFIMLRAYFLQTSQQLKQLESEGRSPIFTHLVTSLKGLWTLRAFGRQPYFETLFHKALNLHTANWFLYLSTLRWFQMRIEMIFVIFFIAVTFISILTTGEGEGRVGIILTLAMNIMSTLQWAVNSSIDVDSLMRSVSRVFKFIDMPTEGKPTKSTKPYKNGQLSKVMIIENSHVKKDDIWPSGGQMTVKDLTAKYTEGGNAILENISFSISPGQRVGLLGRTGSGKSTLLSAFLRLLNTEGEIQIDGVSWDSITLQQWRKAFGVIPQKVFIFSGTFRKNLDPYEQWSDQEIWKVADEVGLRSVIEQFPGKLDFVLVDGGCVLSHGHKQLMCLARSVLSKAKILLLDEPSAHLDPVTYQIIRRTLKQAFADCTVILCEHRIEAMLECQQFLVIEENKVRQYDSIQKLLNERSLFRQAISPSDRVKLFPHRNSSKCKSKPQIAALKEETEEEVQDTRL

Row | EC50 | Maximum % activity | Compound
1 | 350 nM | 47.0% | COc1ccc(C(C)(C)C(=O)N[C@@H]2C[C@H](c3ccc(C(=O)O)cc3)Oc3cc(OC)ccc32)c(F)c1 [Example 117, 4-{(2R,4R)-4-[2-(2-fluoro-4-methoxyphenyl)-2-methylpropanamido]-7-methoxy-3,4-dihydro-2H-1-benzopyran-2-yl}benzoic acid]
2 | > 20000 nM | 16.3% | COc1ccc2c(c1)O[C@@H](c1ccc(C(=O)O)cc1)C[C@H]2NC(=O)C(C)(C)Oc1ccc(F)cc1 [Example 118, 4-{(2R,4R)-4-[2-(4-fluorophenoxy)-2-methylpropanamido]-7-methoxy-3,4-dihydro-2H-1-benzopyran-2-yl}benzoic acid]
3 | 2980 nM | 27.4% | COc1ccc2c(c1)O[C@@H](c1ccc(C(=O)O)cc1)C[C@H]2NC(=O)C(C)(C)Oc1ccc(Cl)cc1 [Example 119, 4-{(2R,4R)-4-[2-(4-chlorophenoxy)-2-methylpropanamido]-7-methoxy-3,4-dihydro-2H-1-benzopyran-2-yl}benzoic acid]
4 | 50 nM | 73.9% | COc1ccc2c(c1)O[C@@H](c1ccc(C(=O)O)cc1)C[C@H]2NC(=O)C(C)(C)c1ccc2c(c1)OCO2 [Example 120, 4-{(2R,4R)-4-[2-(2H-1,3-benzodioxol-5-yl)-2-methylpropanamido]-7-methoxy-3,4-dihydro-2H-1-benzopyran-2-yl}benzoic acid]
5 | 70 nM | 49.6% | COc1ccc(C(C)(C)C(=O)N[C@@H]2C[C@H](c3ccc(C(=O)O)cc3)Oc3cc(OC)ccc32)cc1 [Example 121, 4-{(2R,4R)-7-methoxy-4-[2-(4-methoxyphenyl)-2-methylpropanamido]-3,4-dihydro-2H-1-benzopyran-2-yl}benzoic acid]
6 | 310 nM | 86.2% | COc1ccc2c(c1)O[C@@H](c1cccc(C(=O)O)c1)C[C@H]2NC(=O)C1(C)CCc2cc(C)ccc21 (stereo partly drawn) [Example 122, 3-{(2R,4R)-4-[(1,5-dimethyl-2,3-dihydro-1H-indene-1-carbonyl)amino]-7-methoxy-3,4-dihydro-2H-1-benzopyran-2-yl}benzoic acid]
7 | 460 nM | 87.7% | COC(=O)c1ccc([C@H]2C[C@@H](NC(=O)C3(C)CCc4cc(C)ccc43)c3ccc(OC)cc3O2)cc1 (stereo partly drawn) [Example 124, methyl 4-{(2R,4R)-4-[(1,5-dimethyl-2,3-dihydro-1H-indene-1-carbonyl)amino]-7-methoxy-3,4-dihydro-2H-1-benzopyran-2-yl}benzoate]
